Data as given in patent US20240082342A1, “PEPTIDE THERAPEUTICS FOR INCREASING LUNG CELL VIABILITY” (BOARD OF REGENTS, THE UNIVERSITY OF TEXAS SYSTEM, priority 2018, published 2024).

Tested on: A2Cs and lungs of WT mice with CLP injury
Experiment: Cecal ligation puncture (CLP) sepsis-induced ALI in WT mice
Format: in vivo, mouse
Description: This model was described in detail in publication of the present inventor and colleagues, Gao, R et al., Am. J. Physiol. Mol. Physiol, 2015, 308:L847-L853.
WT mice were injected IP with vehicle, 1.5 mg/kg of CSP or control peptide (CP) 24 h after CLP injury. Sham-operated mice served as controls. Total RNA isolated from the lungs of these mice 72 h after CLP was quantitated for IL-17A mRNA by real-time PCR.
A2Cs were isolated from the lungs of these mice 72 h after CLP, and immunoblotted to assess changes in PAI-1, p53 and caspase-3 activation. All were increased by 72 h during CLP injury.
Mice were injected IP with CSP or control peptide (CP) 24 h after CLP injury. A2Cs isolated from these mice 72 h after CLP injury were immunoblotted for caveolin-1 and β-actin. Lysates of A2Cs from WT mice exposed to the above conditions were immunoprecipitated (IP) for PP2A-C and immunoblotted (IB) for caveolin-1 (Cav1) to assess their interaction.
Mice treated with or without CSP or CP 24 h after CLP injury were euthanized 72 h later and. lung tissues subjected to H&E staining to assess changes in lung inflammation. Lung homogenates and BAL fluids were analyzed for myeloperoxidase (MPO) to access PMN accumulation.
Mice were IP injected with CSP, CP or vehicle 24 h after CLP injury. Total RNA isolated from A2Cs of WT mice with or without CLP, CLP+CSP or CLP+CP 72 h after CLP induced ALI was reverse transcribed and subjected to real time PCR.
A2Cs isolated from mice with CLP, CLP+CSP or CLP+CP were immunoblotted for SP-C, thyroid transcription factor-1 (TTF-1) and β-actin. TTF-1 controls transcription of SP-C.
A2Cs isolated from mice 72 h after IP injection with CSP or CP alone without CLP injury and the lysates were immunoblotted for changes in SP-C expression. Lysates of A2Cs from uninjured (sham-operated) or CLP mice were also used for comparison.

DGIWKASFTTFTVTKYWFYR (listed as Homo sapiens) [CSP, 20 residue caveolin-1 scaffolding domain peptide]
IL-17A in lung tissues (1.5 mg/kg IP 24 h after CLP, 72 h): suppressed sepsis induced IL-17A
miR-34a expression in A2Cs (real time PCR, normalized to U6) (72 h after CLP): significantly reduced
A2C apoptosis, p53 and PAI-1 expression (IP 24 h after CLP, 72 h): concurrent inhibition of A2C apoptosis and p53 and PAI-1 expression
A2C caveolin-1 interaction with PP2A-C (IP/IB) (IP 24 h after CLP, 72 h): inhibited the A2C caveolin-1 interaction with PP2A-C
accumulation of PMN (MPO, H&E) (IP 24 h after CLP, 72 h): significantly inhibited accumulation of PMN
SP-C expression by A2Cs (normal lungs, without CLP injury, 72 h after IP): induced SP-C expression
SP-C expression by A2Cs (sepsis-induced ALI): induction of SP-C expression
inhibition of miR-34a in A2Cs (vs CLP or CLP+CP, 3 days after injury): 7 fold
